According to US20170275298A1, “INHIBITORS OF THE RENAL OUTER MEDULLARY POTASSIUM CHANNEL” (Merck Sharp & Dohme Corp., priority 2014, published 2017):

Target: T1, hROMK (hKir1.1) (Homo sapiens, UniProt P48048)
T1 construct: expressed in transfected cells
T1 sequence (P48048 1-391): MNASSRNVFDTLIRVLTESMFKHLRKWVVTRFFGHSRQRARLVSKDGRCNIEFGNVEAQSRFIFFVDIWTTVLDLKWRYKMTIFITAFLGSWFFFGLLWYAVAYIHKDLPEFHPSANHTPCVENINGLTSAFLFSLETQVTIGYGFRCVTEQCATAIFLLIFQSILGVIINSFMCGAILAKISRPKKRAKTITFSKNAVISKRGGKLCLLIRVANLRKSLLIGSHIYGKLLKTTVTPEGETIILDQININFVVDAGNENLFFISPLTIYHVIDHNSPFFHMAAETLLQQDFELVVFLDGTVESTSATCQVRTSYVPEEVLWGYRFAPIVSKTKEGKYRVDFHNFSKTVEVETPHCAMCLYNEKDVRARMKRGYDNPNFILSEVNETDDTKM
Experiment: Thallium Flux Assay (ROMK channel functional thallium flux assay)
Assay type: cell-based
Conditions: HEK293 cells stably expressing hROMK (hKir1.1); FluxOR thallium flux, FLIPR-Tetra, 30 min compound incubation; read-out: ROMK TI IC50
Experimental: The following Thallium Flux Assay was performed on each of the final product compounds in the Examples.
HEK293 cells stably expressing hROMK (hKir1.1) were grown at 37° C. in a 10% CO2 humidified incubator in complete growth media: Dulbecco's Modified Eagle Medium supplemented with non-essential amino acids, Penicillin/Streptomycin/Glutamine, G418 and FBS. At >80% confluency, the media was aspirated from the flask and rinsed with 10 mL calcium/magnesium-free PBS. […] To dislodge the cell, the side of the flask was gently banged with one's hand. The cells completely titrated and then the cells were transferred to 25 mL complete media, centrifuged at 1,500 rpm for 6 min followed by resuspension in complete growth media and determine cell concentration. […] Under ideal growth conditions and appropriate tissue culture practices, this cell line is stable for 40-45 passages.
• FluxOR™ Reagent (Component A) • FluxOR™ Assay Buffer (Component B)—10× Concentrate • PowerLoad™ Concentrate (Component C)—100× Concentrate • Probenecid (Component D)—Lyophilized sample is kept at −20° C. Water soluble, 100× after solubilization in 1 mL water. […] Store at 4° C. • Thallium sulfate (Tl2SO4) Concentrate (Component G)—50 mM in water. Store at 4° C. • DMSO (dimethyl sulfoxide, Component H)—1 mL (100%)
Can be stored at room temperature • Stimulant Buffer (prepared at 5× final concentration in 1×FluxOR™ Chloride-Free Buffer): 7.5 mM thallium sulfate and 0.75 mM potassium sulfate (to give a final assay concentration of 3 mM Thallium/0.3 mM potassium). Store at 4° C. when not in use. If kept sterile, this solution is good for months.
The ROMK channel functional thallium flux assay was performed in 384 wells, using the FLIPR-Tetra instrument. HEK-hKir1.1 cells were seeded in Poly-D-Lysine microplates and kept in a 37° C.-10% CO2 incubator overnight. On the day of the experiment, the growth media was replaced with the FluxOR™ reagent loading buffer and incubated, protected from light, at ambient temperature (23-25° C.) for 90 min. The loading buffer was replaced with assay buffer±test compound followed by 30 min incubation at ambient temperature, where the thallium/potassium stimulant was added to the microplate.
1. Seed HEK-hKir1.1 cells (50 μl at 20,000 cells/well) in 384-well PDL coated Microplates 2. Allow cells to adhere overnight in humidified 37° C./10% CO2 incubator 3. Completely remove cell growth media from microplate and replace with 25 μl loading buffer 4. Incubate Microplate at room temperature, protected form light, for 90 min 5. Remove loading buffer and replace with 25 μl 1× Assay Buffer±test compound. 6. Incubate microplate at room temperature, protected from light, for 30 min 7. […] Excitation=400 nm, Emission=460 & 580 nm. Collect data for ˜10 min.
The fluorescence intensity of wells containing 3 μM of a standard control ROMK inhibitor of the present invention was used to define the ROMK-sensitive component of thallium flux. Fluorescence in the presence of test compounds was normalized to control values to provide % fluorescence change.

| Compound | IC50 [nM] |
| --- | --- |
| Cc1c([C@H](O)CN2CCC3(CC2)CCN(c2ccc(=O)n(C)n2)C3=O)ccc2c1COC2=O (single isomer, unassigned) [Example 57] | 252 |
| [2H]C([2H])(N1CCC2(CCN(c3ccc(=O)n(C)n3)C2=O)CC1)[C@@]([2H])(O)c1ccc2c(c1C)COC2=O (single isomer, unassigned) [Example 59] | 462 |
| Cc1nsc(N2CCC3(CCN(C[C@H](O)c4ccc5c(c4C)COC5=O)CC3)C2)n1 [Example 1, 5-{(1R)-1-hydroxy-2-[2-(3-methyl-1,2,4-thiadiazol-5-yl)-2,8-diazaspiro[4.5]dec-8-yl]ethyl}-4-methyl-2-benzofuran-1(3H)-one] | 251 |
| CC(=O)OCc1nsc(N2CCC3(CCN(C[C@H](O)c4ccc5c(c4C)COC5=O)CC3)C2)n1 [Example 3, (5-{8-[(2R)-2-hydroxy-2-(4-methyl-1-oxo-1,3-dihydro-2-benzofuran-5-yl)ethyl]-2,8-diazaspiro[4.5]dec-2-yl}-1,2,4-thiadiazol-3-yl)methyl acetate] | 100 |
| Cc1c([C@@H](O)CN2CCC3(CC2)CCN(c2nsc(Cl)n2)C3)ccc2c1COC2=O [Example 4, (R)-5-(2-(2-(5-chloro-1,2,4-thiadiazol-3-yl)-2,8-diazaspiro[4.5]decan-8-yl)-1-hydroxyethyl)-4-methylisobenzofuran-1(3H)-one] | 45.1 |
| Cc1c([C@@H](O)CN2CCC3(CC2)CCN(c2nc(Cl)ns2)C3)ccc2c1COC2=O [Example 5, (R)-5-(2-(2-(3-chloro-1,2,4-thiadiazol-5-yl)-2,8-diazaspiro[4.5]decan-8-yl)-1-hydroxyethyl)-4-methylisobenzofuran-1(3H)-one] | 64.8 |
| COc1ccc(N2CCC3(CCN(C[C@H](O)c4cc(OC)c(C#N)cn4)CC3)C2)nn1 [Example 6, (S)-6-(1-hydroxy-2-(2-(6-methoxypyridazin-3-yl)-2,8-diazaspiro[4.5]decan-8-yl)ethyl)-4-methoxynicotinonitrile] | 476 |
| Cc1c([C@@H](O)CN2CCC3(CC2)CCN(c2ccns2)C3)ccc2c1COC2=O [Example 7, (R)-5-(1-hydroxy-2-(2-(isothiazol-5-yl)-2,8-diazaspiro[4.5]decan-8-yl)ethyl)-4-methylisobenzofuran-1(3H)-one] | 149 |
| Cc1c([C@@H](O)CN2CCC3(CC2)CCN(c2cc(C(F)(F)F)ncn2)C3)ccc2c1COC2=O [Example 9, (R)-5-(1-hydroxy-2-(2-(6-(trifluoromethyl)pyrimidin-4-yl)-2,8-diazaspiro[4.5]decan-8-yl)ethyl)-4-methylisobenzofuran-1(3H)-one] | 173 |
| COc1cc(N2CCC3(CCN(C[C@H](O)c4ccc5c(c4C)COC5=O)CC3)C2)nc(OC)n1 [Example 10, (R)-5-(2-(2-(2,6-dimethoxypyrimidin-4-yl)-2,8-diazaspiro[4.5]decan-8-yl)-1-hydroxyethyl)-4-methylisobenzofuran-1(3H)-one] | 725 |
| COc1nsc(N2CCC3(CCN(C[C@H](O)c4ccc5c(c4C)COC5=O)CC3)C2)n1 [Example 13, (R)-5-(1-hydroxy-2-(2-(3-methoxy-1,2,4-thiadiazol-5-yl)-2,8-diazaspiro[4.5]decan-8-yl)ethyl)-4-methylisobenzofuran-1(3H)-one] | 336 |
| COc1nccc(N2CCC3(CCN(C[C@H](O)c4ccc5c(c4C)COC5=O)CC3)C2)n1 [Example 14, (R)-5-(1-hydroxy-2-(2-(2-methoxypyrimidin-4-yl)-2,8-diazaspiro[4.5]decan-8-yl)ethyl)-4-methylisobenzofuran-1(3H)-one] | 420 |
| COc1ncc(N2CCC3(CCN(C[C@H](O)c4ccc5c(c4C)COC5=O)CC3)C2)cn1 [Example 15, (R)-5-(1-hydroxy-2-(2-(2-methoxypyrimidin-5-yl)-2,8-diazaspiro[4.5]decan-8-yl)ethyl)-4-methylisobenzofuran-1(3H)-one] | 284 |
| Cc1c([C@@H](O)CN2CCC3(CC2)CN(c2ccns2)C3)ccc2c1COC2=O [Example 16] | 418 |
| Cc1cc(-n2cnnn2)ccc1[C@@H](O)CN1CCC2(CC1)CN(c1ccc(=O)n(C)n1)CCO2 [Example 19, (R)-6-(9-(2-hydroxy-2-(2-methyl-4-(1H-tetrazol-1-yl)phenyl)ethyl)-1-oxa-4,9-diazaspiro[5.5]undecan-4-yl)-2-methylpyridazin-3(2H)-one] | 540 |
| Cn1nc(N2CCC3(CCN(CCc4ccc(-n5cnnn5)nn4)CC3)C2=O)ccc1=O [Example 21, 8-(2-(6-(1H-tetrazol-1-yl)pyridazin-3-yl)ethyl)-2-(1-methyl-6-oxo-1,6-dihydropyridazin-3-yl)-2,8-diazaspiro[4.5]decan-1-one] | 568 |

Now from value to compound:

| IC50 [nM] | Compound |
| --- | --- |
| 36 | [2H]C([2H])(N1CCC2(CCN(c3ccc(=O)n(C)n3)C2=O)CC1)[C@]([2H])(O)c1ccc2c(c1C)COC2=O (single isomer, unassigned) [Example 58] |
| 935 | Cc1c([C@@H](O)CN2CCC3(CC2)CCN(c2nc(Cl)cs2)C3)ccc2c1COC2=O [Example 2, 5-{(1R)-2-[2-(4-chloro-1,3-thiazol-2-yl)-2,8-diazaspiro[4.5]dec-8-yl]-1-hydroxyethyl}-4-methyl-2-benzofuran-1(3H)-one] |
| 526 | Cc1c([C@@H](O)CN2CCC3(CC2)CCN(c2ncns2)C3)ccc2c1COC2=O [Example 8, (R)-5-(2-(2-(1,2,4-thiadiazol-5-yl)-2,8-diazaspiro[4.5]decan-8-yl)-1-hydroxyethyl)-4-methylisobenzofuran-1(3H)-one] |
| 67.6 | Cc1c([C@@H](O)CN2CCC3(CC2)CCN(c2ccc(=O)n(C)n2)C3)ccc2c1COC2=O [Example 11, (R)-6-(8-(2-hydroxy-2-(4-methyl-1-oxo-1,3-dihydroisobenzofuran-5-yl)ethyl)-2,8-diazaspiro[4.5]decan-2-yl)-2-methylpyridazin-3(2H)-one] |
| 962 | COc1cc(N2CCC3(CCN(C[C@H](O)c4ccc5c(c4C)COC5=O)CC3)C2)ccn1 [Example 12, (R)-5-(1-hydroxy-2-(2-(2-methoxypyridin-4-yl)-2,8-diazaspiro[4.5]decan-8-yl)ethyl)-4-methylisobenzofuran-1(3H)-one] |
| 88.3 | Cc1c([C@@H](O)CN2CCC3(CC2)CN(c2ccc(=O)n(C)n2)CCO3)ccc2c1COC2=O [Example 17, (R)-6-(9-(2-hydroxy-2-(4-methyl-1-oxo-1,3-dihydroisobenzofuran-5-yl)ethyl)-1-oxa-4,9-diazaspiro[5.5]undecan-4-yl)-2-methylpyridazin-3(2H)-one] |
| 376 | Cc1nc(-n2cnnn2)ccc1[C@@H](O)CN1CCC2(CC1)CN(c1ccc(=O)n(C)n1)CCO2 [Example 18, (R)-6-(9-(2-hydroxy-2-(2-methyl-6-(1H-tetrazol-1-yl)pyridin-3-yl)ethyl)-1-oxa-4,9-diazaspiro[5.5]undecan-4-yl)-2-methylpyridazin-3(2H)-one] |
| 51.2 | Cc1c(CCN2CCC3(CC2)CCN(c2ccc(=O)n(C)n2)C3=O)ccc2c1COC2=O [Example 20, 8-(2-(4-methyl-1-oxo-1,3-dihydroisobenzofuran-5-yl)ethyl)-2-(1-methyl-6-oxo-1,6-dihydropyridazin-3-yl)-2,8-diazaspiro[4.5]decan-1-one] |
| 420 | Cn1nc(N2CCC3(CCN(CCc4ccc(-n5cnnn5)nc4)CC3)C2=O)ccc1=O [Example 22, 8-(2-(6-(1H-tetrazol-1-yl)pyridin-3-yl)ethyl)-2-(1-methyl-6-oxo-1,6-dihydropyridazin-3-yl)-2,8-diazaspiro[4.5]decan-1-one] |
